Measurements taken from US20240366589A1, “NHE3-BINDING COMPOUNDS AND METHODS FOR INHIBITING PHOSPHATE TRANSPORT” (Ardelyx, Inc., priority 2013, published 2024).

Tests used:
[1] = system: absorption of sodium from the intestinal lumen; assay: Inhibition of intestinal sodium absorption: urinary sodium (uNa) 16 h after single oral dose in rats; assay type: in vivo, rat; settings: oral gavage, 16 h post-dose
Procedure, shortened: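 Urinary sodium mass over the 16 h after one oral gavage dose, measured by cation-exchange ion chromatography, reported as percent of water-vehicle group; ANOVA plus Dunnett's post hoc test. Groups of six 8-week-old Sprague-Dawley rats, housed individually in metabolic cages post-dose, fed and watered freely.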

Rat NHE3 = biological target: T1, Rat NHE3 (Rattus norvegicus, UniProt P26433); assay: Cell-based NHE3 activity under prompt conditions (OK cells, BCECF pH recovery), rat NHE3; settings: prompt conditions
T1 construct: expressed in transfected cells; host or cells: Opossum kidney (OK) cells (ATCC), electroporation
Procedure, shortened: (§1)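 Read-out: initial rate of BCECF-reported intracellular pH recovery via Na+/H+ antiport, fitted to pIC50. Opossum kidney cells transfected with rat or human NHE3; NH4Cl prepulse with 5 μM BCECF-AM, 30 min RT; Na+-free choline buffer 10 min.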

Human NHE3 = biological target: T2, Human NHE3 (Homo sapiens, UniProt P48764); assay: Cell-based NHE3 activity under prompt conditions (OK cells, BCECF pH recovery), human NHE3; settings: prompt conditions
T2 construct: expressed in transfected cells; host or cells: Opossum kidney (OK) cells (ATCC), electroporation
T2 sequence (P48764 26-834): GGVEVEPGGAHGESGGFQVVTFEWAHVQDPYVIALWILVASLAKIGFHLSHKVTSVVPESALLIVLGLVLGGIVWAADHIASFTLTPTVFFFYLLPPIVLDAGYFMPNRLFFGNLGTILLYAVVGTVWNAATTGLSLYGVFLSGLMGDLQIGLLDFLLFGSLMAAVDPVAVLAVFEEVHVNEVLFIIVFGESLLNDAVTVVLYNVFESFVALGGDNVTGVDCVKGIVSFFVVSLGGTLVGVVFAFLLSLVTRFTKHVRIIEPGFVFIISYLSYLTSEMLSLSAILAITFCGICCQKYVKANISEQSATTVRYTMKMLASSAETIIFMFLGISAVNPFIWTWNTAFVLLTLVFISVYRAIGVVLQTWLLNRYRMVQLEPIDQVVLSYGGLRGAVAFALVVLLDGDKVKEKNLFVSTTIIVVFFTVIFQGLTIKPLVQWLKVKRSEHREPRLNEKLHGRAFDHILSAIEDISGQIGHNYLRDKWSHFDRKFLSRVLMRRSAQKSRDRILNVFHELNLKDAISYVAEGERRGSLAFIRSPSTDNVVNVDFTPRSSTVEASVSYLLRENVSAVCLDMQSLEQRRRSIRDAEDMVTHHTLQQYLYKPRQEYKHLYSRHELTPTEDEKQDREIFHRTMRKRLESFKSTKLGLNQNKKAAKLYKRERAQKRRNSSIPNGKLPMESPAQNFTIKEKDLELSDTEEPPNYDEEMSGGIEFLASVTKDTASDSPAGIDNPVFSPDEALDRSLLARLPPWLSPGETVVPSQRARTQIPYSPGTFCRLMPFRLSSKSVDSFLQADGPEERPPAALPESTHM
Procedure, shortened: as §1

[2] = system: phosphorus and calcium levels in the urine of rats; assay: Urinary excretion of phosphate and calcium in rats (16 h overnight urine); assay type: in vivo, rat; settings: rats, oral gavage, 16 h post-dose
[3] = system: absorption of sodium from the intestinal lumen; assay: Fecal form score (FFS) 16 h after oral dose in rats; assay type: in vivo, rat; settings: oral gavage, 16 h post-dose, scale 1-5
Procedure, shortened: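 Fecal form was scored at 16 h post-dose on a 1–5 wetness scale (normal pellet to liquid stream), with two independent observations averaged across six rats per group. Animals were 8-week-old Sprague-Dawley rats given test compound or water orally in the late afternoon and kept in metabolic cages.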

T1 sequence (P26433 29-831): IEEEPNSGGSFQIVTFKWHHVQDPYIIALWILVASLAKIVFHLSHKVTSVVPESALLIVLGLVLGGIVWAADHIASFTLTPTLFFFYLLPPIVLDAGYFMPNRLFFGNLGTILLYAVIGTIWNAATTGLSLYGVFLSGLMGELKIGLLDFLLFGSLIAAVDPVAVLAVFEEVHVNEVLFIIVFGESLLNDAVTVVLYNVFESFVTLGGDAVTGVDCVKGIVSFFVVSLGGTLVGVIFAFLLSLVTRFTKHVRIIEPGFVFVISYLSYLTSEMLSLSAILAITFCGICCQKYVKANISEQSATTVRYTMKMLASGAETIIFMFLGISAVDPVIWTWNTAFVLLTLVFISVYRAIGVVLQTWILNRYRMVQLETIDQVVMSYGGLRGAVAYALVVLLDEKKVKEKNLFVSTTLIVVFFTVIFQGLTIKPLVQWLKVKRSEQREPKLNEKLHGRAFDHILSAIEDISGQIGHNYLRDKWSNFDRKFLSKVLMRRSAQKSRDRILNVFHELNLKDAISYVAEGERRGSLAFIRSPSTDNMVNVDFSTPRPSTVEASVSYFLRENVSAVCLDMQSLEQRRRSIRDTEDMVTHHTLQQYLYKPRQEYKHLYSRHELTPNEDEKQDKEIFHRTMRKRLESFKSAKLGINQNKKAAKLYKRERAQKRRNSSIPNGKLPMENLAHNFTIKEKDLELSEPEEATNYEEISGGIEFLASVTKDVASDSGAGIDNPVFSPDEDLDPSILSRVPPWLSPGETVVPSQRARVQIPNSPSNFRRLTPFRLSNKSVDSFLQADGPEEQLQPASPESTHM

Structure (SMILES)	Prompt Rat NHE3 pIC50 (Rat NHE3)	Prompt Human NHE3 pIC50 (Human NHE3)	IC50 (Rat NHE3; read-out: Prompt Rat NHE3 pIC50 (converted)) [nM]	IC50 (Human NHE3; read-out: Prompt Human NHE3 pIC50 (converted)) [nM]	Urine Na % of control ([1]; dose 1 mg/kg) [%]	Urine Na % of control ([1]; dose 3 mg/kg) [%]	Urine P % of control ([2]; dose 1 mg/kg) [%]	Urine P % of control ([2]; dose 3 mg/kg) [%]	Fecal Form Score average ([3]; dose 1 mg/kg)	Fecal Form Score average ([3]; dose 3 mg/kg)	Urine Na % of control ([1]; dose 2 mg/kg) [%]	Urine P % of control ([2]; dose 2 mg/kg) [%]	Fecal Form Score average ([3]; dose 2 mg/kg)	Urine Na % of control ([1]; dose 10 mg/kg) [%]	Urine P % of control ([2]; dose 10 mg/kg) [%]	Fecal Form Score average ([3]; dose 10 mg/kg)
CN1Cc2c(Cl)cc(Cl)cc2[C@H](c2cccc(S(=O)(=O)N(CCO)CCOCCOCCNC(=O)NCCCN(CCCNC(=O)NCCOCCOCCN(CCO)S(=O)(=O)c3cccc([C@@H]4CN(C)Cc5c(Cl)cc(Cl)cc54)c3)CCCNC(=O)NCCOCCOCCN(CCO)S(=O)(=O)c3cccc([C@@H]4CN(C)Cc5c(Cl)cc(Cl)cc54)c3)c2)C1 [compound 146]	7.80	8.35				70		58		2						
CN1Cc2c(Cl)cc(Cl)cc2[C@H](c2cccc(S(=O)(=O)NCCOCCOCCNC(=O)NCCCC(N)(CCCNC(=O)NCCOCCOCCNS(=O)(=O)c3cccc([C@@H]4CN(C)Cc5c(Cl)cc(Cl)cc54)c3)CCCNC(=O)NCCOCCOCCNS(=O)(=O)c3cccc([C@@H]4CN(C)Cc5c(Cl)cc(Cl)cc54)c3)c2)C1 [compound 147]	7.00	7.67				40		32		2						
CN(C)[C@H]1Cc2c(Cl)cc(Cl)cc2[C@@H]1Oc1ccc(S(=O)(=O)NCCOCCOCCNC(=O)CCC(=O)NCCOCCOCCNS(=O)(=O)c2ccc(O[C@H]3c4cc(Cl)cc(Cl)c4C[C@@H]3N(C)C)cc2)cc1 [compound 148]	8.40	7.80				49		146		1						
CN(C)[C@H]1Cc2c(Cl)cc(Cl)cc2[C@@H]1Oc1ccc(S(=O)(=O)NCCOCCOCCNC(=O)COCC(=O)NCCOCCOCCNS(=O)(=O)c2ccc(O[C@H]3c4cc(Cl)cc(Cl)c4C[C@@H]3N(C)C)cc2)cc1 [compound 149]	8.10	8.00			54	46	122	115	1	1	53	69	2			
CN(C)[C@H]1Cc2c(Cl)cc(Cl)cc2[C@@H]1Oc1ccc(S(=O)(=O)NCCOCCOCCNC(=O)[C@H](O)[C@@H](O)C(=O)NCCOCCOCCNS(=O)(=O)c2ccc(O[C@H]3c4cc(Cl)cc(Cl)c4C[C@@H]3N(C)C)cc2)cc1 [compound 150]	8.60	8.00				73		74		1				12	159	1
CN(C)[C@H]1Cc2c(Cl)cc(Cl)cc2[C@@H]1Oc1ccc(S(=O)(=O)NCCOCCOCCNC(=O)C(C)(C)C(=O)NCCOCCOCCNS(=O)(=O)c2ccc(O[C@H]3c4cc(Cl)cc(Cl)c4C[C@@H]3N(C)C)cc2)cc1 [compound 151]	8.30	7.50				78		52		1				42	121	2
CN(C)[C@H]1Cc2c(Cl)cc(Cl)cc2[C@@H]1Oc1ccc(S(=O)(=O)NCCOCCOCCNC(=O)Nc2ccc(NC(=O)NCCOCCOCCNS(=O)(=O)c3ccc(O[C@H]4c5cc(Cl)cc(Cl)c5C[C@@H]4N(C)C)cc3)cc2)cc1 [compound 152]	<5.00	8.70												26	74	1

Second part, led by results:

Prompt Rat NHE3 pIC50 (Rat NHE3)	Prompt Human NHE3 pIC50 (Human NHE3)	IC50 (Rat NHE3; read-out: Prompt Rat NHE3 pIC50 (converted)) [nM]	IC50 (Human NHE3; read-out: Prompt Human NHE3 pIC50 (converted)) [nM]	Structure (SMILES)	Urine Na % of control ([1]; dose 1 mg/kg) [%]	Urine Na % of control ([1]; dose 3 mg/kg) [%]	Urine P % of control ([2]; dose 1 mg/kg) [%]	Urine P % of control ([2]; dose 3 mg/kg) [%]	Fecal Form Score average ([3]; dose 1 mg/kg)	Fecal Form Score average ([3]; dose 3 mg/kg)	Urine Na % of control ([1]; dose 2 mg/kg) [%]	Urine P % of control ([2]; dose 2 mg/kg) [%]	Fecal Form Score average ([3]; dose 2 mg/kg)	Urine Na % of control ([1]; dose 10 mg/kg) [%]	Urine P % of control ([2]; dose 10 mg/kg) [%]	Fecal Form Score average ([3]; dose 10 mg/kg)
7.25	7.27			CN1Cc2c(Cl)cc(Cl)cc2[C@H](c2cccc(S(=O)(=O)NCCOCCOCCNC(=O)CCC(CCC(=O)NCCOCCOCCNS(=O)(=O)c3cccc([C@@H]4CN(C)Cc5c(Cl)cc(Cl)cc54)c3)(CCC(=O)NCCOCCOCCNS(=O)(=O)c3cccc([C@@H]4CN(C)Cc5c(Cl)cc(Cl)cc54)c3)NC(=O)NC[C@H](O)[C@@H](O)[C@H](O)[C@H](O)CO)c2)C1 [compound 143]	68	34	73	93	1	3						
7.20	7.77			CN1Cc2c(Cl)cc(Cl)cc2[C@H](c2cccc(S(=O)(=O)NCCOCCOCCNC(=O)CCC(CCC(=O)NCCOCCOCCNS(=O)(=O)c3cccc([C@@H]4CN(C)Cc5c(Cl)cc(Cl)cc54)c3)(CCC(=O)NCCOCCOCCNS(=O)(=O)c3cccc([C@@H]4CN(C)Cc5c(Cl)cc(Cl)cc54)c3)NC(=O)NCCN3CCOCC3)c2)C1 [compound 144]		32		47		2						
		25.1	20	CC1Cc2c(Cl)cc(Cl)cc2[C@H](c2cccc(S(=O)(=O)NCCOCCOCCNC(=O)CCC(CCC(=O)NCCOCCOCCNS(=O)(=O)c3cccc([C@@H]4CN(C)Cc5c(Cl)cc(Cl)cc54)c3)(CCC(=O)NCCOCCOCCNS(=O)(=O)c3cccc([C@@H]4CN(C)Cc5c(Cl)cc(Cl)cc54)c3)NC(=O)N[C@@H](CC(=O)O)C(=O)O)c2)C1 (stereo partly shown) [compound 145]		41		51		3						
6.80	6.80			CN1Cc2c(Cl)cc(Cl)cc2[C@H](c2cccc(S(=O)(=O)NCCOCCOCCNC(=O)CCC(CCC(=O)NCCOCCOCCNS(=O)(=O)c3cccc([C@@H]4CN(C)Cc5c(Cl)cc(Cl)cc54)c3)(CCC(=O)NCCOCCOCCNS(=O)(=O)c3cccc([C@@H]4CN(C)Cc5c(Cl)cc(Cl)cc54)c3)NC(=O)Cn3ccnc3)c2)C1 [compound 154]		112		65		1						
7.70	7.90			CN1Cc2c(Cl)cc(Cl)cc2[C@H](c2cccc(S(=O)(=O)NCCOCCOCCNC(=O)NCCCC(CCCNC(=O)NCCOCCOCCNS(=O)(=O)c3cccc([C@@H]4CN(C)Cc5c(Cl)cc(Cl)cc54)c3)(CCCNC(=O)NCCOCCOCCNS(=O)(=O)c3cccc([C@@H]4CN(C)Cc5c(Cl)cc(Cl)cc54)c3)NC(=O)CCC(=O)O)c2)C1 [compound 155]		40		44		2						
6.70	7.20			CN1Cc2c(Cl)cc(Cl)cc2[C@H](c2cccc(S(=O)(=O)NCCOCCOCCNC(=O)CCC(CCC(=O)NCCOCCOCCNS(=O)(=O)c3cccc([C@@H]4CN(C)Cc5c(Cl)cc(Cl)cc54)c3)(CCC(=O)NCCOCCOCCNS(=O)(=O)c3cccc([C@@H]4CN(C)Cc5c(Cl)cc(Cl)cc54)c3)NC(=O)Cc3nnn[nH]3)c2)C1 [compound 156]		13		67		3						
7.70	7.77			CN1Cc2c(Cl)cc(Cl)cc2[C@H](c2cccc(S(=O)(=O)NCCOCCOCCNC(=O)CCC(CCC(=O)NCCOCCOCCNS(=O)(=O)c3cccc([C@@H]4CN(C)Cc5c(Cl)cc(Cl)cc54)c3)(CCC(=O)NCCOCCOCCNS(=O)(=O)c3cccc([C@@H]4CN(C)Cc5c(Cl)cc(Cl)cc54)c3)NC(=O)NCCS(=O)(=O)O)c2)C1 [compound 157]		26		50		3						
